Reference: patent US20240299395A1, “COMBINATION THERAPIES COMPRISING WEE1 INHIBITORS AND DNA DAMAGE RESPONSE (DDR) INHIBITORS” (Recurium IP Holdings, LLC, priority 2021, published 2024)
Read-outs that look alike come from different tables or passages of the source.

What was measured:
Format in all cases: cell-based
THP-1 (AML) cell line = assay: CellTiter-Glo (CTG) cell viability, THP-1; conditions: for single agent activity (figure legend): THP-1, FIGS. 7-8, 72 h
Method: (§1) 20,000 MDA-MB-231 cells were incubated in a 96 well plate as a triplicate with 500 nM of ZN-c3 and 10 nM of CHK inhibitor or 700 nM of ATR inhibitor as a single agent or the combination of both for 72 h. 20,000 H23 cells were incubated in a 96 well plate as a triplicate with 150 nM of ZN-c3 and 5 nM of CHK inhibitor or 500 nM of ATR inhibitor as a single agent or the combination of both for 72 h. 10,000 MV4-11 cells were incubated in a 96 well plate as a triplicate with 400 nM of ZN-c3 and 2 nM of CHK inhibitor or 2000 nM of ATM inhibitor as a single agent or the combination of both for 72 h. 20,000 THP-1 cells were incubated in a 96 well plate as a triplicate with 600 nM of ZN-c3 and 4 nM of CHK inhibitor or 1000 nM of ATR inhibitor as a single agent or the combination of both for 72 h. 10,000 HL-60 cells were incubated in a 96 well plate as a triplicate with 750 nM of ZN-c3 and 15 nM of CHK inhibitor or 2000 nM of ATM inhibitor as a single agent or the combination of both for 72 h. 10,000 LNCaP cells were incubated in a 96 well plate as a triplicate with 500 nM of ZN-c3 and 10 nM of CHK inhibitor or 1000 nM of ATM inhibitor as a single agent or the combination of both for 72 h. For each cell line, the cell viability was assessed using a CellTiter-Glo® (CTG) assay.
(§2) 10,000 MV4-11 cells were incubated in a 96 well plate as a triplicate with 2 nM of ZN-d5, 400 nM of ZN-c3 and 2 nM of CHK inhibitor or 2000 nM of ATM inhibitor or 150 nM of ATR inhibitor as a single, double or triple combination for 72 h. 20,000 THP-1 cells were incubated in a 96 well plate as a triplicate with 100 nM of ZN-d5, 600 nM of ZN-c3 and 4 nM of CHK inhibitor or 1000 nM of ATM inhibitor or 1000 nM of ATR inhibitor as a single, double or triple combination for 72 h. 10,000 HL-60 cells were incubated in a 96 well plate as a triplicate with 75 nM of ZN-d5, 750 nM of ZN-c3 and 15 nM of CHK inhibitor or 2000 nM of ATM inhibitor or 1000 nM of ATR inhibitor as a single, double or triple combination for 72 h. For each cell line, the cell viability was assessed using a CellTiter-Glo® (CTG) assay.

[1] = system: LNCaP (Prostate) cell line; assay: CellTiter-Glo (CTG) cell viability, LNCaP; conditions: for single agent activity (figure legend): FIGS. 12-13, 72 h
Method: as §1

H23 (NSCLC) cell line = assay: CellTiter-Glo (CTG) cell viability, H23; conditions: for single agent activity (figure legend): H23, FIGS. 3-4, 72 h
Method: as §1

MV4-11 (AML) cell line = assay: CellTiter-Glo (CTG) cell viability, MV4-11; conditions: for single agent activity (figure legend): MV4-11, FIGS. 5-6, 72 h
Method: as §1, §2

HL-60 (AML) cell line = assay: CellTiter-Glo (CTG) cell viability, HL-60; conditions: for single agent activity (figure legend): HL-60, FIGS. 9-11, 72 h
Method: as §1, §2

[2] = system: MDA-MB-231 (TNBC) cell line; assay: CellTiter-Glo (CTG) cell viability, MDA-MB-231; conditions: for single agent activity (figure legend): MDA-MB-231, FIGS. 1-2, 72 h
Method: as §1

[3] = Homo sapiens, THP-1, 72 h, Table 4, 100 nM ZN-d5, 600 nM ZN-c3, 4 nM CHK inhibitor, 1000 nM ATM inhibitor, 1000 nM ATR inhibitor, single, double or triple combination, 72 h
[4] = Table 1, 150 nM ZN-c3, 5 nM CHK inhibitor, single agent or combination, 72 h
[5] = Homo sapiens, MV4-11, 72 h, Table 4, 2 nM ZN-d5, 400 nM ZN-c3, 2 nM CHK inhibitor, 2000 nM ATM inhibitor, 150 nM ATR inhibitor, single, double or triple combination, 72 h
[6] = Homo sapiens, HL-60, 72 h, Table 4, 75 nM ZN-d5, 750 nM ZN-c3, 15 nM CHK inhibitor, 2000 nM ATM inhibitor, 1000 nM ATR inhibitor, single, double or triple combination, 72 h, read-out: HL60 % Inhibition
[7] = Table 4, 100 nM ZN-d5, 600 nM ZN-c3, 4 nM CHK inhibitor, 1000 nM ATM inhibitor, 1000 nM ATR inhibitor, single, double or triple combination, 72 h
[8] = Table 4, 2 nM ZN-d5, 400 nM ZN-c3, 2 nM CHK inhibitor, 2000 nM ATM inhibitor, 150 nM ATR inhibitor, single, double or triple combination, 72 h
[9] = Table 4, 75 nM ZN-d5, 750 nM ZN-c3, 15 nM CHK inhibitor, 2000 nM ATM inhibitor, 1000 nM ATR inhibitor, single, double or triple combination, 72 h
[10] = Table 1, 500 nM ZN-c3, 10 nM CHK inhibitor, single agent or combination, 72 h

C=CCn1c(=O)c2cnc(Nc3ccc(N4CCN(C)CC4)cc3)nc2n1-c1ccc2c(n1)[C@@](O)(CC)CC2 [ZN-c3]
inhibition at 0.6 µM (THP-1 (AML) cell line; Homo sapiens, THP-1, 72 h, Table 1, 600 nM ZN-c3, 4 nM CHK inhibitor, single agent or combination, 72 h): 18%
inhibition at 0.6 µM (THP-1 (AML) cell line; Homo sapiens, THP-1, 72 h, Table 2, 600 nM ZN-c3, 1000 nM ATR inhibitor, single agent or combination, 72 h): 18%
inhibition at 0.6 µM (THP-1 (AML) cell line; [3]): 18.1%
single agent activity (figure legend) (THP-1 (AML) cell line): single agent activity was observed
inhibition at 0.5 µM ([1]; Homo sapiens, LNCaP, Table 1, 500 nM ZN-c3, 10 nM CHK inhibitor, single agent or combination, 72 h): 24%
single agent activity (figure legend) ([1]; LNCaP): single agent activity was observed
single agent activity (figure legend) (H23 (NSCLC) cell line): single agent activity was observed
inhibition at 0.15 µM (H23 (NSCLC) cell line; [4]): 22%
inhibition at 0.4 µM (MV4-11 (AML) cell line; Homo sapiens, MV4-11, 72 h, Table 1, 400 nM ZN-c3, 2 nM CHK inhibitor, single agent or combination, 72 h): 49%
inhibition at 0.4 µM (MV4-11 (AML) cell line; Homo sapiens, MV4-11, 72 h, Table 3, 400 nM ZN-c3, 2000 nM ATM inhibitor, single agent or combination, 72 h): 49%
inhibition at 0.4 µM (MV4-11 (AML) cell line; [5]): 49.2%
single agent activity (figure legend) (MV4-11 (AML) cell line): single agent activity was observed
single agent activity (figure legend) (HL-60 (AML) cell line): single agent activity was observed
inhibition at 0.75 µM (HL-60 (AML) cell line; Homo sapiens, HL-60, 72 h, Table 1, 750 nM ZN-c3, 15 nM CHK inhibitor, single agent or combination, 72 h, read-out: HL60 % Inhibition): 25%
inhibition at 0.75 µM (HL-60 (AML) cell line; Homo sapiens, HL-60, 72 h, Table 3, 750 nM ZN-c3, 2000 nM ATM inhibitor, single agent or combination, 72 h, read-out: HL60 % Inhibition): 25%
inhibition at 0.75 µM (HL-60 (AML) cell line; [6]): 25.5%
inhibition at 0.5 µM ([2]; Homo sapiens, MDA-MB-231, Table 1, 500 nM ZN-c3, 10 nM CHK inhibitor, single agent or combination, 72 h): 35%
single agent activity (figure legend) [2]: single agent activity was observed

CNCc1ccc(-c2cc(-c3nc(-c4ccc(S(=O)(=O)C(C)C)cc4)cnc3N)on2)cc1 [ATRi, Berzosertib]
THP % Inhibition (THP-1 (AML) cell line; Table 2, 600 nM ZN-c3, 1000 nM ATR inhibitor, single agent or combination, 72 h): 37%
THP % Inhibition (THP-1 (AML) cell line; [7]): 36.93%
single agent activity (figure legend) (H23 (NSCLC) cell line): single agent activity was observed
H23 % Inhibition (H23 (NSCLC) cell line; Table 2, 150 nM ZN-c3, 500 nM ATR inhibitor, single agent or combination, 72 h): 35%
MV4; 11 % Inhibition (MV4-11 (AML) cell line; [8]): 13.99%
single agent activity (figure legend) (HL-60 (AML) cell line): single agent activity was observed
inhibition at 1 µM (HL-60 (AML) cell line; Homo sapiens, HL-60, 72 h, Table 2, 750 nM ZN-c3, ATR inhibitor (1000 nM), single agent or combination, 72 h, read-out: HL60 % Inhibition): 15%
HL60 % Inhibition (HL-60 (AML) cell line; [9]): 15.91%
single agent activity (figure legend) [2]: single agent activity was observed
MDA-MB-231 % Inhibition ([2]; Table 2, 500 nM ZN-c3, 700 nM ATR inhibitor, single agent or combination, 72 h): 33%

CN(C)CCCOc1ccc(-c2ccc3ncc4c(c3c2)n(C2CCOCC2)c(=O)n4C)cn1 [ATMi, AZD0156]
single agent activity (figure legend) (THP-1 (AML) cell line): single agent activity was observed
THP % Inhibition (THP-1 (AML) cell line; [7]): 19.52%
single agent activity (figure legend) ([1]; LNCaP): single agent activity was observed
LNCaP % Inhibition ([1]; Table 3, 500 nM ZN-c3, 1000 nM ATM inhibitor, single agent or combination, 72 h): 14%
single agent activity (figure legend) (MV4-11 (AML) cell line): single agent activity was observed
MV4; 11 % Inhibition (MV4-11 (AML) cell line; Table 3, 400 nM ZN-c3, 2000 nM ATM inhibitor, single agent or combination, 72 h): 18%
MV4; 11 % Inhibition (MV4-11 (AML) cell line; [8]): 18.48%
single agent activity (figure legend) (HL-60 (AML) cell line): practically no activity
HL60 % Inhibition (HL-60 (AML) cell line; Table 3, 750 nM ZN-c3, 2000 nM ATM inhibitor, single agent or combination, 72 h): 3%
HL60 % Inhibition (HL-60 (AML) cell line; [9]): 2.95%

CC1(C)CCC(CN2CCN(c3ccc(C(=O)NS(=O)(=O)c4ccc(NC[C@H]5CC[C@](C)(O)CC5)c([N+](=O)[O-])c4)c(Oc4cnc5[nH]ccc5c4)c3)CC2)=C(C23CC(C(F)F)(C2)C3)C1 [ZN-d5, 2-((1H-pyrrolo[2,3-b]pyridin-5-yl)oxy)-4-(4-((2-(3-(difluoromethyl)bicyclo[1.1.1]pentan-1-yl)-4,4-dimethylcyclohex-1-en-1-yl)methyl)piperazin-1-yl)-N-((4-((((1r,4r)-4-hydroxy-4-methylcyclohexyl)methyl)amino)-3-nitrophenyl)sulfonyl)benzamide]
inhibition at 0.1 µM (THP-1 (AML) cell line; [3]): 2.6%
inhibition at 0.002 µM (MV4-11 (AML) cell line; [5]): 8.44%
inhibition at 0.075 µM (HL-60 (AML) cell line; [6]): 37.6%

COc1cccc(OCCCN)c1-c1cc(Nc2cnc(C#N)cn2)n[nH]1 [CHKi, Prexasertib]
THP % Inhibition (THP-1 (AML) cell line; Table 1, 600 nM ZN-c3, 4 nM CHK inhibitor, single agent or combination, 72 h): 32%
THP % Inhibition (THP-1 (AML) cell line; [7]): 32.29%
single agent activity (figure legend) ([1]; LNCaP): single agent activity was observed
LNCaP % Inhibition [1, 10]: 14%
single agent activity (figure legend) (H23 (NSCLC) cell line): practically no activity
H23 % Inhibition (H23 (NSCLC) cell line; [4]): 1%
single agent activity (figure legend) (MV4-11 (AML) cell line): no activity
MV4; 11 % Inhibition (MV4-11 (AML) cell line; Table 1, 400 nM ZN-c3, 2 nM CHK inhibitor, single agent or combination, 72 h): 0%
MV4; 11 % Inhibition (MV4-11 (AML) cell line; [8]): 0%
single agent activity (figure legend) (HL-60 (AML) cell line): no activity
HL60 % Inhibition (HL-60 (AML) cell line; Table 1, 750 nM ZN-c3, 15 nM CHK inhibitor, single agent or combination, 72 h): 0%
HL60 % Inhibition (HL-60 (AML) cell line; [9]): 0%
single agent activity (figure legend) [2]: single agent activity was observed
MDA-MB-231 % Inhibition [2, 10]: 26%
